We go through two molecules from paper PMC4032254, “Targeting of the MYCN Protein with Small Molecule c-MYC Inhibitors” (PLoS ONE, 2014).

What is called pKd is the negative decadic logarithm of the Kd, by convention in mol/L. Low values mean a large Kd, high ones a small Kd.

The structures appear in SMILES notation. pKd: −log10 of the molar value.

Experiment [1] has as its target T1, bHLHZip domain of human MYCN (380–464) (Homo sapiens, UniProt P04198).
T1 construct: N-terminally His-tagged bHLHZip c-MYC (353–437) and bHLHZip MYCN (380–464) proteins were over-expressed in E. coli BL21 (DE3); made in house; host or cells: E. coli BL21 (DE3)
Kind of experiment: Surface plasmon resonance binding to bHLHZip of MYCN. To be noted: SPR, 25°C, steady state, mean ± SD. On the procedure:
For all SPR binding measurements the compounds were injected at increasing concentrations.
In order to determine the affinity of the compounds to c-MYC and MYCN, the response for each small molecule was plotted against the analyte (compound) concentration. The KD was defined as the concentration of analyte at 50% of the experimental maximal Response (Rmax). Approximate KD-values could be determined for all compounds except for #764. […] In summary, all active c-MYC inhibitors tested were also found to bind directly to MYCN.
N-terminally His-tagged bHLHZip c-MYC (353–437) and bHLHZip MYCN (380–464) proteins were over-expressed in E. coli BL21 (DE3) bacteria (Stratagene) at 37°C in LB media with kanamycin. Cultures were induced with Isopropyl β-D-1-thiogalactopyranoside (0,1 mg/ml) at an OD of 0.6 and harvested after 4 hours. After sonication of the proteins in 50 mM NaH2PO4, 100 mM NaCl and 10 mM Tris-HCl (pH = 8,0) for 6×30 seconds, the pellet was resuspended in 100 mM NaH2PO4, 10 mM Tris-HCl, 10 mM imidazole and 8 M urea (pH = 8,0) prior to additional sonication for 6×30 seconds. The proteins were then loaded onto a Ni-Sepahrose High Performance His-Trap column (GE Healthcare), washed with ten column volumes of 100 mM NaH2PO4, 10 mM Tris-HCl, 40 mM imidazole and 8 M urea (pH = 8,0) and finally eluted with two column volumes 100 mM NaH2PO4, 10 mM Tris-HCl, 500 mM imidazole and 8 M urea (pH = 8,0). Fractions without visible higher molecular mass contaminations, as judged by SDS-page, were pooled and refolded by dialysis in 50 mM NaH2PO4, 100 mM NaCl, 10 mM Tris-HCl (pH = 8,0), 5 mM EDTA, 2 mM DTT and decreasing concentrations of urea (6 M, 4 M, 2 M and 0 M). […] Protein concentrations were determined by SDS-page comparing purified proteins to a standard curve of BSA loaded on the gel.
Surface Plasmon Resonance (SPR) experiments were performed using a Biacore T200 (GE Healthcare) instrument at 25°C. […] The obtained data was analyzed by the Biacore T200 Evaluation Software 2.0 (GE Healthcare). […]

The next experiment relates to MYCN protein levels. In words: Western blot of MYCN protein levels in SK-N-BE(2) cells. The following applies: 48 hours. The class given is cell-based, human. On the procedure:
In order to determine the effect of the other compounds analyzed in this study on the MYCN protein levels, SK-N-BE(2) NB cells were treated with as a high concentration of each compound as possible without resulting in excessive cell death. […] Membranes were probed with antibodies recognizing MYCN and GAPDH. The blots are representative from three independent experiments. Whole cell extracts were prepared and lysed using RIPA-buffer. Western blot analysis was performed as previously described. In brief, membranes were probed with a mouse anti-MYCN antibody (B8.4.B, St Cruz Bio), MAX antibody (C-2, St Cruz Bio) and an HRP-conjugated anti-mouse antibody (DAKO) was used as secondary antibody. The membranes were developed using enhanced chemiluminescence substrate (ECL, Amersham).
(In western blotting, separated proteins are transferred to a membrane and probed.)

T1 sequence (P04198 380-464): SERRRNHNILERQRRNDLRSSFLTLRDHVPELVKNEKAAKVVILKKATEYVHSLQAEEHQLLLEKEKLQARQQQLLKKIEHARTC

`CCc1ccc(C=C2SC(=S)NC2=O)cc1` [Compound 10058-F4, [Z,E]-5-[4-ethylbenzylidine]-2-thioxothiazolidin-4-one] showed a pKd in experiment [1] of 4.38. In the experiment on MYCN protein levels, the “effect on MYCN protein levels” value was “able to efficiently decrease the MYCN protein levels”.

With `O=[N+]([O-])c1ccc(Nc2ccccc2-c2ccccc2)c2nonc12` [Compound 10074-G5], the pKd in experiment [1] was 4.72. For the same molecule, the “effect on MYCN protein levels” value with MYCN protein levels is recorded as “decreased the MYCN protein levels at lower concentrations than 10058-F4”.
